According to patent US10544150B2, “NK-3 receptor selective antagonist compounds, pharmaceutical composition and methods for use in NK-3 receptors mediated disorders” (Ogeda SA, priority 2010, dated 2020):

Target: human NK-3 receptor (Homo sapiens (Human), UniProt P29371)
Assay: 3H-SB222200 binding competition assay with human NK-3 receptor
Settings: 3H-SB222200 displacement, CHO cell membranes expressing human NK3 receptor; read-out: Ki range
Protocol: The affinity of compounds of the invention for the tachykinin receptors was determined by measuring the ability of the compounds of the invention to displace a radiolabeled ligand from its specifics binding site.
^3H-SB222200 Binding Competition Assay with Human NK-3 Receptor
The ability of the compounds of the invention to inhibit the binding of the NK-3 receptor selective antagonist SB222200 was assessed by an in vitro radioligand binding assay. Membranes were prepared from Chinese hamster ovary recombinant cells which express the human NK3 receptor. The membranes were incubated with 5 nM ^3H-SB222200_(ARC) in a HEPES 25 mM/NaCl 0.1M/CaCl2 1 mM/MgCl2 5 Mm/BSA 0.5%/Saponin 10 μg/ml buffer at pH 7.4 and various concentrations of the compounds of the invention. The amount of tritiated SB222200 bound to the receptor was determined after filtration by the quantification of membrane associated radioactivity using the TopCount-NXT reader (Packard). […] In Table 3 biological results obtained using the ^3H-SB222200 binding competition assay with compounds of the invention are set out in tabulated form. In this table the calculated Ki is given. The Ki value obtained (in accordance with the protocol set forth above) is represented as follows: “+++” means Ki<500 nM; “++” means 500 nM≤Ki≤1 μM; “+” means 1 μM<Ki≤5 μM; “#” means Ki>5 μM.

Sequence of human NK-3 receptor (P29371 whole entry): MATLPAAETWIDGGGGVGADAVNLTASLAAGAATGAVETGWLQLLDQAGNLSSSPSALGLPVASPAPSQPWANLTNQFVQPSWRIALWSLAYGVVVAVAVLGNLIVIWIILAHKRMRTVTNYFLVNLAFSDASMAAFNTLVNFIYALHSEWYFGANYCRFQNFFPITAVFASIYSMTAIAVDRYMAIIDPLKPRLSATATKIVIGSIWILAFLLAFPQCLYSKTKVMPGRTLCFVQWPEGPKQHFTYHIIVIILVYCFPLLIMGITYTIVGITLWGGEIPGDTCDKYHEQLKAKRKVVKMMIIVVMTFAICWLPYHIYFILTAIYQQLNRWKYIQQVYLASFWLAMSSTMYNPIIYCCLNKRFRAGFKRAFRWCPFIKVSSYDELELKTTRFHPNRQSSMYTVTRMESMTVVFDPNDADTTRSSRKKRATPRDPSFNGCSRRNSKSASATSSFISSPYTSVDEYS

Structure (SMILES) | Ki
Cn1nc(-c2ccc(Cl)c(Cl)c2)cc1C(=O)N1CCn2c(nnc2-c2ccccn2)C1 [Compound 14, (3-(3,4-dichlorophenyl)-1-methyl-1H-pyrazol-5-yl)(3-(pyridin-2-yl)-5,6-dihydro-[1,2,4]triazolo[4,3-a]pyrazin-7(8H)-yl)methanone] | 1000 to 5000 nM
C[C@H]1c2nnc(-c3csc(-c4ccccc4)n3)n2CCN1C(=O)c1ccc(F)cc1 [Compound 167, (S)-(4-fluorophenyl)(8-methyl-3-(2-phenylthiazol-4-yl)-5,6-dihydro-[1,2,4]triazolo[4,3-a]pyrazin-7(8H)-yl)methanone] | 500 to 1000 nM
O=C(c1ccc(F)cc1)N1CCn2c(nnc2-c2cccc(-c3ccccc3)n2)C1 [Compound 25, (4-fluorophenyl)(3-(6-phenylpyridin-2-yl)-5,6-dihydro-[1,2,4]triazolo[4,3-a]pyrazin-7(8H)-yl)methanone] | < 500 nM
COCC1CCCCN1c1nc(-c2nnc3n2CCN(C(=O)c2ccc(F)cc2)C3)cs1 (stereo not drawn) [Compound 277, (4-fluorophenyl)(3-(2-(2-(methoxymethyl)piperidin-1-yl)thiazol-4-yl)-5,6-dihydro-[1,2,4]triazolo[4,3-a]pyrazin-7(8H)-yl)methanone] | > 5000 nM
Cc1ccc(-c2nc(-c3nnc4n3CCN(C(=O)c3ccc(F)cc3)C4)cs2)cc1 [Compound 190, (4-fluorophenyl)(3-(2-(p-tolyl)thiazol-4-yl)-5,6-dihydro-[1,2,4]triazolo[4,3-a]pyrazin-7(8H)-yl)methanone] | < 500 nM
COc1ccccc1-c1nc(-c2nnc3n2CCN(C(=O)c2ccc(-c4cccs4)cc2)C3)cs1 [Compound 202, (3-(2-(2-methoxyphenyl)thiazol-4-yl)-5,6-dihydro-[1,2,4]triazolo[4,3-a]pyrazin-7(8H)-yl)(4-(thiophen-2-yl)phenyl)methanone] | < 500 nM
O=C(c1ccc(-c2cccs2)cc1)N1CCn2c(nnc2-c2csc(N3CCCCC3)n2)C1 [Compound 247, (3-(2-(piperidin-1-yl)thiazol-4-yl)-5,6-dihydro-[1,2,4]triazolo[4,3-a]pyrazin-7(8H)-yl)(4-(thiophen-2-yl)phenyl)methanone] | < 500 nM
CC1c2nnc(-c3csc(-c4ccccc4)n3)n2CCN1C(=O)c1ccc(-c2cccs2)cc1 (stereo not drawn) [Compound 62, (8-methyl-3-(2-phenylthiazol-4-yl)-5,6-dihydro-[1,2,4]triazolo[4,3-a]pyrazin-7(8H)-yl)(4-(thiophen-2-yl)phenyl)methanone] | < 500 nM
O=C(c1ccc(F)cc1)N1CCn2c(nnc2-c2noc(-c3ccccc3)n2)C1 [Compound 173, (4-fluorophenyl)(3-(5-phenyl-1,2,4-oxadiazol-3-yl)-5,6-dihydro-[1,2,4]triazolo[4,3-a]pyrazin-7(8H)-yl)methanone] | < 500 nM
O=C(c1ccc(-c2ccccc2)cc1)N1CCn2c(nnc2-c2coc(-c3ccccc3)n2)C1 [Compound 50, [1,1′-biphenyl]-4-yl(3-(2-phenyloxazol-4-yl)-5,6-dihydro-[1,2,4]triazolo[4,3-a]pyrazin-7(8H)-yl)methanone] | < 500 nM
O=C(c1ccc(-c2cccs2)cc1)N1CCn2c(nnc2-c2csc(-c3cccs3)n2)C1 [Compound 194, (4-(thiophen-2-yl)phenyl)(3-(2-(thiophen-2-yl)thiazol-4-yl)-5,6-dihydro-[1,2,4]triazolo[4,3-a]pyrazin-7(8H)-yl)methanone] | < 500 nM
CC1c2nnc(-c3csc(-c4ccc(F)cc4)n3)n2CCN1C(=O)c1ccc(-c2ccccc2)cc1 (stereo not drawn) [Compound 76, [1,1′-biphenyl]-4-yl(3-(2-(4-fluorophenyl)thiazol-4-yl)-8-methyl-5,6-dihydro-[1,2,4]triazolo[4,3-a]pyrazin-7(8H)-yl)methanone] | < 500 nM
O=C(c1ccc(-c2cccs2)cc1)N1CCn2c(nnc2-c2csc(-c3ncccn3)n2)C1 [Compound 226, (3-(2-(pyrimidin-2-yl)thiazol-4-yl)-5,6-dihydro-[1,2,4]triazolo[4,3-a]pyrazin-7(8H)-yl)(4-(thiophen-2-yl)phenyl)methanone] | > 5000 nM
O=C(c1ccc(F)cc1)N1CCn2c(nnc2-c2ccc3ccccc3n2)C1 [Compound 7, (4-fluorophenyl)(3-(quinolin-2-yl)-5,6-dihydro-[1,2,4]triazolo[4,3-a]pyrazin-7(8H)-yl)methanone] | < 500 nM
O=C(c1ccc(F)cc1)N1CCn2c(nnc2-c2nc(-c3ccccc3)cs2)C1 [Compound 57, (4-fluorophenyl)(3-(4-phenylthiazol-2-yl)-5,6-dihydro-[1,2,4]triazolo[4,3-a]pyrazin-7(8H)-yl)methanone] | < 500 nM
O=C(c1ccc(-c2cccs2)cc1)N1CCn2c(nnc2-c2csc(N3CCCC3)n2)C1 [Compound 248, (3-(2-(pyrrolidin-1-yl)thiazol-4-yl)-5,6-dihydro-[1,2,4]triazolo[4,3-a]pyrazin-7(8H)-yl)(4-(thiophen-2-yl)phenyl)methanone] | < 500 nM
C[C@@H]1c2nnc(-c3csc(-c4ccccc4)n3)n2CCN1C(=O)c1ccc(F)cc1 [Compound 45, (R)-(4-fluorophenyl)(8-methyl-3-(2-phenylthiazol-4-yl)-5,6-dihydro-[1,2,4]triazolo[4,3-a]pyrazin-7(8H)-yl)methanone] | < 500 nM
C[C@H]1c2nnc(-c3csc(-c4ccc(F)cc4)n3)n2CCN1C(=O)c1ccc(F)cc1 [Compound 160, (S)-(4-fluorophenyl)(3-(2-(4-fluorophenyl)thiazol-4-yl)-8-methyl-5,6-dihydro-[1,2,4]triazolo[4,3-a]pyrazin-7(8H)-yl)methanone] | 1000 to 5000 nM
Cc1ccsc1-c1ccc(C(=O)N2CCn3c(-c4csc(-c5ccc(F)cc5)n4)nnc3C2C)cc1 (stereo not drawn) [Compound 268, (3-(2-(4-fluorophenyl)thiazol-4-yl)-8-methyl-5,6-dihydro-[1,2,4]triazolo[4,3-a]pyrazin-7(8H)-yl)(4-(3-methylthiophen-2-yl)phenyl)methanone] | < 500 nM
CC1CN(C(=O)c2ccc(-c3cccs3)cc2)Cc2nnc(-c3csc(-c4ccc(F)cc4)n3)n21 (stereo not drawn) [Compound 108, (3-(2-(4-fluorophenyl)thiazol-4-yl)-5-methyl-5,6-dihydro-[1,2,4]triazolo[4,3-a]pyrazin-7(8H)-yl)(4-(thiophen-2-yl)phenyl)methanone] | 500 to 1000 nM
O=C(c1ccc(-c2cccs2)cc1)N1CCn2c(nnc2-c2nc(-c3ccccc3)no2)C1 [Compound 174, (3-(3-phenyl-1,2,4-oxadiazol-5-yl)-5,6-dihydro-[1,2,4]triazolo[4,3-a]pyrazin-7(8H)-yl)(4-(thiophen-2-yl)phenyl)methanone] | < 500 nM
O=C(c1ccc(-c2cccs2)cc1)N1CCn2c(nnc2-c2nc(-c3ccccc3)ns2)C1 [Compound 211, (3-(3-phenyl-1,2,4-thiadiazol-5-yl)-5,6-dihydro-[1,2,4]triazolo[4,3-a]pyrazin-7(8H)-yl)(4-(thiophen-2-yl)phenyl)methanone] | < 500 nM
O=C(c1ccc(-c2ccc(F)cc2)cc1)N1CCn2c(nnc2-c2csc(-c3cccs3)n2)C1 [Compound 196, (4′-fluoro-[1,1′-biphenyl]-4-yl)(3-(2-(thiophen-2-yl)thiazol-4-yl)-5,6-dihydro-[1,2,4]triazolo[4,3-a]pyrazin-7(8H)-yl)methanone] | < 500 nM
CC1(C)CN(c2nc(-c3nnc4n3CCN(C(=O)c3ccc(-c5cccs5)cc3)C4)cs2)CCO1 [Compound 266, (3-(2-(2,2-dimethylmorpholino)thiazol-4-yl)-5,6-dihydro-[1,2,4]triazolo[4,3-a]pyrazin-7(8H)-yl)(4-(thiophen-2-yl)phenyl)methanone] | < 500 nM
O=C(c1ccc(F)cc1)N1CCn2c(nnc2-c2cc3ccccc3cn2)C1 [Compound 15, (4-fluorophenyl)(3-(isoquinolin-3-yl)-5,6-dihydro-[1,2,4]triazolo[4,3-a]pyrazin-7(8H)-yl)methanone] | 1000 to 5000 nM
Cc1cccc(-c2nnc3n2CCN(C(=O)c2ccc(-c4cccs4)cc2)C3C)n1 (stereo not drawn) [Compound 287, (8-methyl-3-(6-methylpyridin-2-yl)-5,6-dihydro-[1,2,4]triazolo[4,3-a]pyrazin-7(8H)-yl)(4-(thiophen-2-yl)phenyl)methanone] | < 500 nM
CC1c2nnc(-c3csc(-c4ccccc4)n3)n2CCN1C(=O)c1ccc(F)cc1 (stereo not drawn) [Compound 166, (4-fluorophenyl)(8-methyl-3-(2-phenylthiazol-4-yl)-5,6-dihydro-[1,2,4]triazolo[4,3-a]pyrazin-7(8H)-yl)methanone] | < 500 nM
O=C(c1ccc(F)cc1)N1CCn2c(nnc2-c2csc(-c3cccs3)n2)C1 [Compound 193, (4-fluorophenyl)(3-(2-(thiophen-2-yl)thiazol-4-yl)-5,6-dihydro-[1,2,4]triazolo[4,3-a]pyrazin-7(8H)-yl)methanone] | < 500 nM
CN(C)c1ccc(-c2nc(-c3nnc4n3CCN(C(=O)c3ccc(-c5cccs5)cc3)C4)cs2)cc1 [Compound 229, (3-(2-(4-(dimethylamino)phenyl)thiazol-4-yl)-5,6-dihydro-[1,2,4]triazolo[4,3-a]pyrazin-7(8H)-yl)(4-(thiophen-2-yl)phenyl)methanone] | < 500 nM
O=C(c1ccc(-c2ccccc2)cc1)N1CCn2c(nnc2-c2ccccn2)C1 [Compound 6, [1,1′-biphenyl]-4-yl(3-(pyridin-2-yl)-5,6-dihydro-[1,2,4]triazolo[4,3-a]pyrazin-7(8H)-yl)methanone] | 1000 to 5000 nM
